Measured values from ChEMBL document CHEMBL1201862, “PubChem BioAssay data set” (2004).
Activity calls are given as the source filed them.

Experiments:
[1] = target: Beta-galactosidase (Escherichia coli, UniProt Q8VNN2); assay: PubChem AID 485352; type: functional
[2] = Vero E6 cell cytotoxicity, dose response, cytotoxicity control for non-replicating M. tuberculosis project, secondary assay (AID 492998); type: functional, VeroE6; settings: Vero C1008
[3] = target: ATP-dependent molecular chaperone HSP82 (Candida albicans (strain WO-1) (Yeast), UniProt C4YTQ8); assay: loss of DOC-induced GRE-beta-galactosidase reporter signal, dose response, Hsp90 inhibitor project, S. cerevisiae, luminescence (AID 2400); type: functional, cell-based;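 further: beta-galactosidase luminescence from glucocorticoid response element reporter as proxy for Hsp90 function; inhibitor potency where signal loss means Hsp90 inhibition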
[4] = cells; type: functional
[5] = target: Sphingosine 1-phosphate receptor 1 (Homo sapiens, UniProt P21453); type: functional;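 further: Tango beta-arrestin reporter U2OS cells stimulated with S1P near its EC80; inhibitor potency meaning antagonism of receptor activation by the natural agonist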
[6] = HepG2 cell cytotoxicity, dose response, cytotoxicity control for Shn3 inhibitor project, CellTiter-Glo, cherry-picked (AID 624134); type: functional, cell-based
[7] = control 3'UTR Renilla luciferase suppression, dose response, counter-screen for Shn3 inhibitor project, cell-based, Clone20-Shn3RL, cherry-picked (AID 624133); type: functional
[8] = cytotoxicity in MIN6 insulinoma cells, dose response, cytotoxicity control, cell-based, mouse insulinoma (AID 2122); type: functional;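 further: confirmatory high-throughput counterscreen run to flag cytotoxic compounds; mouse MIN-6 beta cells carrying an insulin promoter eGFP reporter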
[9] = Shn3 3'UTR reporter inhibitors, dose response, cell-based, Clone20 osteoblasts, firefly luciferase, cherry-picked (AID 624132); type: functional;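 further: firefly luciferase luminescence from reporter carrying the Shn3 3'UTR in osteoblasts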
[10] = inhibitors of firefly luciferase expression or activity, dose response, H4 neuroglioma cells, luminescence (AID 1990); type: functional, cell-based
[11] = target: Paired box protein Pax-8 (Homo sapiens, UniProt Q06710); assay: inhibitors of PAX8-driven TPO luciferase reporter, dose response, RMG-I cells, cherry-pick (AID 687027); type: functional, cell-based;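 further: luciferase reporter driven by Pax8 target thyroperoxidase promoter measured by SteadyGlo luminescence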
[12] = system: BJ; assay: cytotoxicity toward BJ-TERT fibroblasts, dose response, cell-based, RAS-independent, luminescence (AID 1933); type: functional; settings: Homo sapiens
[13] = Luminescence Cell-Based Dose Response HTS to Identify Inhibitors of 5'UTR Stem-Loop Driven Prion Protein mRNA Translation in H4 Neuroglioblastoma Cells. [Related pubchem assays: 1827 (Project Summary), 1813 (Primary HTS)]; type: functional
[14] = cytotoxicity toward DRD oncogenic fibroblasts, dose response, cell-based, non-viral oncogenic, luminescence (AID 1934); type: functional; settings: Homo sapiens
[15] = ZM109 Env clade C HIV-1 fusion inhibitors, dose response, HeLa effector, CEM target cells, luciferase, cherry-pick (AID 652058); type: functional, cell-based
[16] = CEM21 lymphoblast cell cytotoxicity, dose response, cytotoxicity control for viral fusion inhibitor project, CellTiter-Glo luminescence, cherry-picked (AID 652042); type: functional, cell-based;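 further: potency for signal decrease meaning cytotoxicity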
[17] = target: T1, Streptokinase A (Streptococcus pyogenes serotype M1, UniProt P10520); assay: S. pyogenes streptokinase expression inhibitors, potency, dose response, plasminogen activation absorbance, OD405 (AID 1914); type: functional, Streptococcus pyogenes M1 GAS;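 further: secreted streptokinase activity via plasminogen activation per viability signal from cell pellet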
T1 sequence (P10520 whole entry): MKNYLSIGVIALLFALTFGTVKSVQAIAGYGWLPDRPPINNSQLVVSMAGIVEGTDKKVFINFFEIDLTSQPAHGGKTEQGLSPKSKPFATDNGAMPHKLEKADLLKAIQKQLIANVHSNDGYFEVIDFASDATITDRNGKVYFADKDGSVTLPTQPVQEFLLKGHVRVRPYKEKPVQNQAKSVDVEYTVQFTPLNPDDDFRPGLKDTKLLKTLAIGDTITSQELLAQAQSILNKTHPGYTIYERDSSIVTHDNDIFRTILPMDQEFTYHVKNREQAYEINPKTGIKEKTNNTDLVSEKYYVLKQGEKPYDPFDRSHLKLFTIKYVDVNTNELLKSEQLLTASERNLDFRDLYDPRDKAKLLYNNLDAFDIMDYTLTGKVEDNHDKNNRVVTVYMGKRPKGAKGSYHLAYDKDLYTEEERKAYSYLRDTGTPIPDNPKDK

[18] = target: T2, Protein RecA (Mycobacterium tuberculosis, UniProt P9WHJ3); assay: Fluorescence Cell-Free Homogeneous Dose Retest to Identify Inhibitors of RecA-Intein Splicing Activity. [Related pubchem assays (depositor defined):AID2097, AID2223, AID489010, AID492950]; type: functional
T2 sequence (P9WHJ3 whole entry): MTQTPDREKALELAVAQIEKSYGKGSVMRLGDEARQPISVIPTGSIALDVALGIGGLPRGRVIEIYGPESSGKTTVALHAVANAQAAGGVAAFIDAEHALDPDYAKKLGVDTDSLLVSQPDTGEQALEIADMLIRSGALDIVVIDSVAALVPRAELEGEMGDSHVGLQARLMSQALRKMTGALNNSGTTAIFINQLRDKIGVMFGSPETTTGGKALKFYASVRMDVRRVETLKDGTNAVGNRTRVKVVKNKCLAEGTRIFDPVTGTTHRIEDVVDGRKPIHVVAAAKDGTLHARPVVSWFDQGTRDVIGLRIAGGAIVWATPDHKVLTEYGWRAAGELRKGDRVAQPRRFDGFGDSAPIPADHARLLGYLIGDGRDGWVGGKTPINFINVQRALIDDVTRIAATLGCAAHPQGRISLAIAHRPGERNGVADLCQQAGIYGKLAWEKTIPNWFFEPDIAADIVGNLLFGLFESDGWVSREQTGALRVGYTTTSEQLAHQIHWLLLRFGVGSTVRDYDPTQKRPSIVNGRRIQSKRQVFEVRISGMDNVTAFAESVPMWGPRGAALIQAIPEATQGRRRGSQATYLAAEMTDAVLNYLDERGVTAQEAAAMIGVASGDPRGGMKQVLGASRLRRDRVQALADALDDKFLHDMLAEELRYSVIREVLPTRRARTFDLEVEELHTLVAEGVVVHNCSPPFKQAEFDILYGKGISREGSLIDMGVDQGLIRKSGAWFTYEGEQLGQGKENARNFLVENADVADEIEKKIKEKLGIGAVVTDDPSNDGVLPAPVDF

ATP-dependent molecular chaperone HSP82, sequence (C4YTQ8 whole entry): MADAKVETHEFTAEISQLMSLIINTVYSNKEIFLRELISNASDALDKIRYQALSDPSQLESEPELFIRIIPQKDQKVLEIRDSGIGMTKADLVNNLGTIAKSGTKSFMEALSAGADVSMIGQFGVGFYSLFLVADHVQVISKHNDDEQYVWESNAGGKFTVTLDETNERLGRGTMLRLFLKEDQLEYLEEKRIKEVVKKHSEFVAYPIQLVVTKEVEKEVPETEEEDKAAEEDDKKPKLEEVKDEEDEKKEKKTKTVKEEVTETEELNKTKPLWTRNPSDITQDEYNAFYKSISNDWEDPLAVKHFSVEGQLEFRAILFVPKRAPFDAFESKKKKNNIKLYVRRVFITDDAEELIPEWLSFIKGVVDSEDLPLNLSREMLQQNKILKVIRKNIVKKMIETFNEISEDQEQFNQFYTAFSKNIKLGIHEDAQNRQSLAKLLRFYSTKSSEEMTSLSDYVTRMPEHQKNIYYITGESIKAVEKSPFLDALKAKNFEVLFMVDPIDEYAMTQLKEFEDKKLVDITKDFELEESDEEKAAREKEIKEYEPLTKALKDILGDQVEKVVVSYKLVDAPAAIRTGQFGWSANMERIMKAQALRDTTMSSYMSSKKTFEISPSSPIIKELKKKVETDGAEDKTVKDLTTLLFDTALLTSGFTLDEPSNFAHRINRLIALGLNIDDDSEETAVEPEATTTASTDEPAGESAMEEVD
Sphingosine 1-phosphate receptor 1, sequence (P21453 whole entry): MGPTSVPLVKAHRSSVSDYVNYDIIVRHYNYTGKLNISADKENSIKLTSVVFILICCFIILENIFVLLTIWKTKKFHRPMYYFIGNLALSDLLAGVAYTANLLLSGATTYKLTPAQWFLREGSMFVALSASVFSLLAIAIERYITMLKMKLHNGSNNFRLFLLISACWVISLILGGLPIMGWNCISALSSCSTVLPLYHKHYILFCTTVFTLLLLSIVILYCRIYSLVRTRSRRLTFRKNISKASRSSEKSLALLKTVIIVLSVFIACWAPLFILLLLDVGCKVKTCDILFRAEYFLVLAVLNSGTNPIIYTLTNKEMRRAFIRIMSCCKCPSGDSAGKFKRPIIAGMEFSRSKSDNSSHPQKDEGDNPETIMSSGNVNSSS
Beta-galactosidase, sequence (Q8VNN2 whole entry): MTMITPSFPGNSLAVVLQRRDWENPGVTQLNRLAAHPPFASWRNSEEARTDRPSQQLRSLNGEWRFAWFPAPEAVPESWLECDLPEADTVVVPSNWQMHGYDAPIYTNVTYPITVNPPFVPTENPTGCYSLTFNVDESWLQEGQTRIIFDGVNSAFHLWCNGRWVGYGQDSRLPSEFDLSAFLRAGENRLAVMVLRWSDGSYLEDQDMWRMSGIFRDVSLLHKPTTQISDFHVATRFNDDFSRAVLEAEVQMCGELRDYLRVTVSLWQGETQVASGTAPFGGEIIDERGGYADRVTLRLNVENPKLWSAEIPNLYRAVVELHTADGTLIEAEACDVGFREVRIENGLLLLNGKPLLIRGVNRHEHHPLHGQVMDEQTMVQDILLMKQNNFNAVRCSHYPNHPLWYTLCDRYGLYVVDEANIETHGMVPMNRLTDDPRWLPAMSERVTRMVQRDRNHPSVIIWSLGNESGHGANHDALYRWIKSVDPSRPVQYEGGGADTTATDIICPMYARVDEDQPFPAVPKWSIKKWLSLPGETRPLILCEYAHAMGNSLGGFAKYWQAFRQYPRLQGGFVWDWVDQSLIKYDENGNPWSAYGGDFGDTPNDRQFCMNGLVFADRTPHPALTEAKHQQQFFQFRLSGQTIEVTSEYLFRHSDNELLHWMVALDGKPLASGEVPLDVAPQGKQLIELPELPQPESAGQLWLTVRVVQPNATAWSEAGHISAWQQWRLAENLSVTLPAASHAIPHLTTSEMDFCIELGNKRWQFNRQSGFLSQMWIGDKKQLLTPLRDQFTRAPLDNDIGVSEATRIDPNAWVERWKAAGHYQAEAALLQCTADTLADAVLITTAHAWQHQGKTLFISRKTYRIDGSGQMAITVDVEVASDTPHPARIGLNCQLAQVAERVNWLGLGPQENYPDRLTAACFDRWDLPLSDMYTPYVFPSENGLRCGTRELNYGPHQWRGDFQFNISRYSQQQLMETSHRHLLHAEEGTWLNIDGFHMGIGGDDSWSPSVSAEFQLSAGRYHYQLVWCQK
Paired box protein Pax-8, sequence (Q06710 whole entry): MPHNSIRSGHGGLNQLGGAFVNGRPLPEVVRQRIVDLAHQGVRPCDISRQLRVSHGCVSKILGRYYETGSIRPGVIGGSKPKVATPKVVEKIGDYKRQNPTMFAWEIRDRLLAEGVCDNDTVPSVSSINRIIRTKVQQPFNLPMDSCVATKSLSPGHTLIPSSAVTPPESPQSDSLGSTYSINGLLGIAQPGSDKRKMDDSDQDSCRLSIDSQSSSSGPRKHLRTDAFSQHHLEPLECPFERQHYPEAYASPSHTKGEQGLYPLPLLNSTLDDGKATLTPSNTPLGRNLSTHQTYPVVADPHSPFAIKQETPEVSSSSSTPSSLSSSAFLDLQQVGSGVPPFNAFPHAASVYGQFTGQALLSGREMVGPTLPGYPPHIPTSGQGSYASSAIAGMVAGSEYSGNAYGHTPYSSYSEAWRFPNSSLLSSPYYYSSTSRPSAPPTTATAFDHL

Oc1c(C(c2ccccc2Cl)N2CCCC2)ccc2cccnc12 (stereo not drawn)
inactive: EC50 [1] > 40 µM | EC50 [3] > 160 µM
active: CC50 [2] 9.56 µM | IC50 [4] 13.2 µM | IC50 [5] 5.93 µM | AC50 [6] 46.9 µM | AC50 [7] 6.38 µM | IC50 [8] 4.59 µM | AC50 [9] 5.77 µM

COc1cccc(/C=N/Nc2ccc([N+](=O)[O-])cn2)c1O
active: EC50 [10] 2.97 µM | AC50 [11] 6.41 µM | EC50 [13] 0.34 µM | EC50 [14] 3.96 µM
inconclusive: EC50 [12] 3.31 µM

CCc1ccc(S(=O)(=O)/N=C2\C=C(Nc3ccc(C(=O)O)cc3)C(=O)c3ccccc32)cc1
active: AC50 [15] 6.74 µM | AC50 [16] 6.53 µM | EC50 [18] 0.124 µM
> 150 µM (not active): EC50 [17]
